Data reported in US20250042897A1, “HETEROCYCLIC COMPOUNDS AS TRIGGERING RECEPTOR EXPRESSED ON MYELOID CELLS 2 AGONISTS AND METHODS OF USE” (Vigil Neuroscience, Inc., priority 2021, published 2025).

Molecular target: T1, human TREM2 (Homo sapiens, UniProt Q9NZC2)
T1 construct: expressed in transfected cells; host or cells: HEK293T
Test: hTREM2 agonist potency by cellular Syk phosphorylation (AlphaLisa) in HEK293T-hTREM2 cells
Type: cell-based
Conditions: Table D-2; HEK293 cells expressing human TREM2 and DAP12; pSyk AlphaLisa; 45 minutes at room temperature
Protocol: In Vitro Measurement of Triggering Receptor Expressed on Myeloid Cells 2 Activity Using Cellular Phosphorylation of Spleen Tyrosine Kinase (“Syk”) Assays
Measurement of TREM2 agonist potency was done using a HEK cell line expressing human TREM2 and DAP12 (HEK293T-hTREM2 cells). Binding of small molecules to, and activation of, TREM2 increases the phosphorylation of Syk. The resultant levels of Syk phosphorylation are measured using a commercial AlphaLisa reagent kit. To perform the assay, HEK-hTREM2 cells were plated at 14,000 cells per well in a 384 well plate, in 25 μL of complete growth media and incubated at 37° C., 5% CO2 for 20-24 hours.
Prior to the assay, test compounds were diluted in the 384 well plates in assay buffer and allowed to equilibrate for 30 minutes. Growth media was removed from cell plates by inversion on blotting paper, and 25 μL of test articles in assay buffer was added to cells. Cells were incubated for 45 minutes at room temperature. After 45 minutes, assay buffer was removed and 10 μL of lysis buffer was added. Plates were shaken for 20 minutes at 350 RPM at room temperature. After complete lysis, AlphaLisa reagents were added to the lysate, and fluorescence intensity was measured using a Perkin Elmer Envision plate reader. Intensities were used to generate a standard curve, and % activation was calculated. Curve fitting was performed using Prism v9 software, log (agonist) vs response-variable slope (four parameters), and EC50s were calculated from the curve fit.
The results presented in Table D have been generated with the in vitro assay described above. This assay may be used to test any of the compounds described herein to assess and characterize a compound's ability to act as an agonist of TREM2.

T1 sequence (Q9NZC2 19-230): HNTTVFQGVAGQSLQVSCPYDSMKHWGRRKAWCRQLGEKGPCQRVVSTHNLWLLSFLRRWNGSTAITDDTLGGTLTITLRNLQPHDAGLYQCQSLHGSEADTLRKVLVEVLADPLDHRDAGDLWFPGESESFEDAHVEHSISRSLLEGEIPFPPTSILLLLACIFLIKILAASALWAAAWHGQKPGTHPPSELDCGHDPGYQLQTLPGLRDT
T1 sequence (O43914 22-113 partner): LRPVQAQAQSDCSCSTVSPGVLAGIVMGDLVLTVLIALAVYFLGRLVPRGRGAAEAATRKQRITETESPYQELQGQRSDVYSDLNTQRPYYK

EC50 | Structure (SMILES)
≤ 50 nM | Cc1cc2c(-c3ccc(C(F)(F)F)cc3F)nc(N3C[C@@H](C)O[C@@H](c4cnn(C5CC5)c4)C3)cc2c(=O)n1C [I-79, 7-((2S,6R)-2-(1-cyclopropyl-1H-pyrazol-4-yl)-6-methylmorpholino)-5-(2-fluoro-4-(trifluoromethyl)phenyl)-2,3-dimethyl-2,6-naphthyridin-1 (2H)-one]
≤ 50 nM | Cc1nc2c(-c3ccc(F)cc3F)nc(N3C[C@@H](C)O[C@@H](c4cnn(C5CC5)c4)C3)nc2c(=O)n1C [I-90, 6-((2S,6R)-2-(1-cyclopropyl-1H-pyrazol-4-yl)-6-methylmorpholino)-8-(2,4-difluorophenyl)-2,3-dimethylpyrimido[5,4-d]pyrimidin-4 (3H)-one]
50 to 500 nM | Cc1nc2c(-c3ccc(F)cc3F)nc([C@H]3CCO[C@@H](c4cnn(C5CC5)c4)C3)nc2c(=O)n1C [I-105, 6-((2R,4S)-2-(1-cyclopropyl-1H-pyrazol-4-yl)tetrahydro-2H-pyran-4-yl)-8-(2,4-difluorophenyl)-2,3-dimethylpyrimido[5,4-d]pyrimidin-4 (3H)-one]
≤ 50 nM | Cc1nc2c(-c3ccc(F)cc3F)cc(N3C[C@@H](C)O[C@@H](c4cnn(C5CC5)c4)C3)nc2c(=O)n1C [I-110, 6-((2S,6R)-2-(1-cyclopropyl-1H-pyrazol-4-yl)-6-methylmorpholino)-8-(2,4-difluorophenyl)-2,3-dimethylpyrido[3,2-d]pyrimidin-4 (3H)-one]
500 to 3000 nM | O=c1c2nc(C3CCOC(c4cnn(C5CC5)c4)C3)nc(-c3ccc(C(F)(F)F)cc3F)c2cnn1C1CC1 (stereo not drawn) [I-115]
≤ 50 nM | C[C@@H]1CN(c2nc(-c3ccc(F)cc3F)c3cnn(C)c(=O)c3n2)C[C@H](c2cnn(C3CC3)c2)O1 [I-141, 2-[(2S, 6R)-2-(1-cyclopropylpyrazol-4-yl)-6-methyl-morpholin-4-yl]-4-(2,4-difluorophenyl)-7-methyl-pyrimido[4,5-d]pyridazin-8-one]
50 to 500 nM | Cn1ncc2c(-c3ccc(F)cc3F)nc(C3CCO[C@@H](c4cnn(C5CC5)c4)C3)nc2c1=O (stereo partly drawn) [I-146, 2-[(2R)-2-(1-cyclopropylpyrazol-4-yl)tetrahydropyran-4-yl]-4-(2,4-difluorophenyl)-7-methyl-pyrimido[4,5-d]pyridazin-8-one]
≤ 50 nM | C[C@@H]1CN(c2nc(-c3ccc(F)cc3F)c3ncn(C)c(=O)c3n2)C[C@H](c2cnn(C3CC3)c2)O1 [I-163, 6-((2S,6R)-2-(1-cyclopropyl-1H-pyrazol-4-yl)-6-methylmorpholino)-8-(2,4-difluorophenyl)-3-methylpyrimido[5,4-d]pyrimidin-4 (3H)-one]
50 to 500 nM | Cc1nc2c(-c3ccc(F)cc3F)nc([C@@H]3CCO[C@@H](c4cnn(C5CC5)c4)C3)nc2c(=O)n1C [I-168]

More lines, now with the values behind:

Structure (SMILES) | EC50
Cc1nc2nc([C@H]3CCO[C@@H](c4cnn(C5CC5)c4)C3)cc(-c3ccc(F)cc3F)c2c(=O)n1C (single isomer, unassigned) [I-40] | ≤ 50 nM
Cc1nc2nc([C@@H]3CCO[C@H](c4cnn(C5CC5)c4)C3)cc(-c3ccc(F)cc3F)c2c(=O)n1C (single isomer, unassigned) [I-42] | 500 to 3000 nM
Cn1ncc2c(-c3ccc(Cl)cc3F)nc(N3C[C@@H](C4CC4)O[C@@H](c4cnn(C5CC5)c4)C3)nc2c1=O (single isomer, unassigned) [I-183] | ≤ 50 nM
Cn1ncc2c(-c3ccc(Cl)cc3F)nc(N3C[C@@H](c4cnn(C5CC5)c4)O[C@@H](C4CC4)C3)nc2c1=O (single isomer, unassigned) [I-184] | ≤ 50 nM
Cn1ncc2c(-c3ccc(Cl)cc3F)nc(N3CCOC(c4cnn(C5CC5)c4)C3)cc2c1=O (stereo not drawn) [I-45, 5-(4-chloro-2-fluorophenyl)-7-(2-(1-cyclopropyl-1H-pyrazol-4-yl)morpholino)-2-methylpyrido[3,4-d]pyridazin-1 (2H)-one] | 50 to 500 nM
Cn1ncc2c(-c3ccc(Cl)cc3F)nc([C@H]3CCO[C@@H](c4cnn(C5CC5)c4)C3)cc2c1=O [I-48, 5-(4-chloro-2-fluoro-phenyl)-7-[(2R,4S)-2-(1-cyclopropylpyrazol-4-yl)tetrahydropyran-4-yl]-2-methyl-pyrido[3,4-d]pyridazin-1-one] | ≤ 50 nM
Cn1ncc2c(-c3ccc(C(F)(F)F)cc3F)nc([C@H]3CCO[C@@H](c4cnn(C5CC5)c4)C3)cc2c1=O [I-53, 7-[(2R, 4S)-2-(1-cyclopropylpyrazol-4-yl)tetrahydropyran-4-yl]-5-[2-fluoro-4-(trifluoroomethyl)phenyl]-2-methyl-pyrido[3,4-d]pyridazin-1-one] | 50 to 500 nM
C[C@@H]1CN(c2cc3c(=O)n(C)ncc3c(-c3ccc(F)cc3F)n2)C[C@H](c2cnn(C3CC3)c2)O1 [I-58, 7-[(2S,6R)-2-(1-cyclopropylpyrazol-4-yl)-6-methyl-morpholin-4-yl]-5-(2,4-difluorophenyl)-2-methyl-pyrido[3,4-d]pyridazin-1-one] | ≤ 50 nM
Cn1ncc2c(-c3ccc(F)cc3F)nc(C3CCO[C@@H](c4cnn(C5CC5)c4)C3)cc2c1=O (stereo partly drawn) [I-63, 7-[(2R)-2-(1-cyclopropylpyrazol-4-yl)tetrahydropyran-4-yl]-5-(2,4-difluorophenyl)-2-methyl-pyrido[3,4-d]pyridazin-1-one] | 50 to 500 nM
Cn1ncc2c(-c3ccc(C(F)(F)F)cc3F)nc(C3CCO[C@@H](c4cnn(C5CC5)c4)C3)nc2c1=O (stereo partly drawn) [I-84, 2-((2R)-2-(1-cyclopropyl-1H-pyrazol-4-yl)tetrahydro-2H-pyran-4-yl)-4-(2-fluoro-4-(trifluoromethyl)phenyl)-7-methylpyrimido[4,5-d]pyridazin-8 (7H)-one] | 50 to 500 nM
Cc1cc2c(-c3ccc(C(F)(F)F)cc3F)nc([C@H]3CCO[C@@H](c4cnn(C5CC5)c4)C3)cc2c(=O)n1C [I-95, 7-((2R,4S)-2-(1-cyclopropyl-1H-pyrazol-4-yl)tetrahydro-2H-pyran-4-yl)-5-(2-fluoro-4-(trifluoromethyl)phenyl)-2,3-dimethyl-2,6-naphthyridin-1 (2H)-one] | ≤ 50 nM
C[C@@H]1CN(c2cc(-c3ccc(Cl)cc3F)c3cnn(C)c(=O)c3n2)C[C@H](c2cnn(C3CC3)c2)O1 [I-100, 4-(4-chloro-2-fluorophenyl)-2-((2S,6R)-2-(1-cyclopropyl-1H-pyrazol-4-yl)-6-methylmorpholino)-7-methylpyrido[2,3-d]pyridazin-8 (7H)-one] | 50 to 500 nM
Cc1nc2c(-c3ccc(F)cc3F)cc([C@H]3CCO[C@@H](c4cnn(C5CC5)c4)C3)nc2c(=O)n1C [I-120, 6-((2R,4S)-2-(1-cyclopropyl-1H-pyrazol-4-yl)tetrahydro-2H-pyran-4-yl)-8-(2,4-difluorophenyl)-2,3-dimethylpyrido[3,2-d]pyrimidin-4 (3H)-one] | 50 to 500 nM
Cc1nc2c(-c3ccc(C(F)(F)F)cc3F)nc([C@@H]3CCO[C@@H](c4cnn(C5CC5)c4)C3)nc2c(=O)n1C [I-132, 6-[(2R,4R)-2-(1-cyclopropylpyrazol-4-yl)tetrahydropyran-4-yl]-8-[2-fluoro-4-(trifluoromethyl)phenyl]-2,3-dimethyl-pyrimido[5,4-d]pyrimidin-4-one] | 50 to 500 nM
Cc1nc2c(-c3ccc(C(F)(F)F)cc3F)nc([C@H]3CCO[C@@H](c4cnn(C5CC5)c4)C3)nc2c(=O)n1C [I-134, 6-[(2R,4S)-2-(1-cyclopropylpyrazol-4-yl)tetrahydropyran-4-yl]-8-[2-fluoro-4-(trifluoromethyl)phenyl]-2,3-dimethyl-pyrimido[5,4-d]pyrimidin-4-one] | ≤ 50 nM
Cc1nc2c(-c3ccc(C(F)(F)F)cc3F)nc(N3C[C@@H](C)O[C@@H](c4cnn(C5CC5)c4)C3)nc2c(=O)n1C [I-136, 6-[(2S,6R)-2-(1-cyclopropylpyrazol-4-yl)-6-methyl-morpholin-4-yl]-8-[2-fluoro-4-(trifluoromethyl)phenyl]-2,3-dimethyl-pyrimido[5,4-d]pyrimidin-4-one] | ≤ 50 nM
Cc1nc2c(-c3ccc(Cl)cc3F)nc(N3C[C@@H](C)O[C@@H](c4cnn(C5CC5)c4)C3)nc2c(=O)n1C [I-152, 8-(4-chloro-2-fluoro-phenyl)-6-[(2S,6R)-2-(1-cyclopropylpyrazol-4-yl)-6-methyl-morpholin-4-yl]-2,3-dimethyl-pyrimido[5,4-d]pyrimidin-4-one] | ≤ 50 nM
Cn1ncc2c(-c3ccc(F)cc3F)nc(C3CCO[C@@H](c4cn(C5CC5)[n+](C)c4)C3)nc2c1=O (stereo partly drawn) [I-157, 2-[(2R)-2-(1-cyclopropyl-2-methyl-pyrazol-2-ium-4-yl)tetrahydropyran-4-yl]-4-(2,4-difluorophenyl)-7-methyl-pyrimido[4,5-d]pyridazin-8-one] | 500 to 3000 nM
CC1Nc2c(nc([C@H]3CCO[C@@H](c4cnn(C5CC5)c4)C3)nc2-c2ccc(F)cc2F)C(=O)N1C (stereo partly drawn) [I-173] | 500 to 3000 nM
COCn1cc([C@H]2CN(c3nc(-c4ccc(Cl)cc4F)c4cnn(C)c(=O)c4n3)C[C@@H](C)O2)cn1 [I-178] | ≤ 50 nM
Cc1cc([C@H]2CC(c3nc(-c4ccc(Cl)cc4F)c4nc(C)n(C)c(=O)c4n3)CCO2)ccn1 (stereo partly drawn) [I-188, 8-(4-chloro-2-fluoro-phenyl)-2,3-dimethyl-6-[(2R)-2-(2-methyl-4-pyridyl)tetrahydropyran-4-yl]pyrimido[5,4-d]pyrimidin-4-one] | ≤ 50 nM
